Source: patent US5849735A, “Tricyclic benzazepine vasopressin antagonists” (American Cyanamid Company, priority 1995, dated 1998)

Molecular target: T1, human V2 vasopressin receptor (Homo sapiens, UniProt P30518)
T1 construct: expressed in transfected cells; host or cells: mouse fibroblast cell line LV-2
Assay: Binding to Membranes of Mouse Fibroblast Cell Line (LV-2) Transfected with the cDNA Expressing the Human V2 Vasopressin Receptor
Method: Binding to Membranes of Mouse Fibroblast Cell Line (LV-2) Transfected with the cDNA Expressing the Human V2 Vasopressin Receptor
Flasks of 175 ml capacity, continuing attached cells grown to confluence, are cleared of culture medium by aspiration. The flasks containing the attached cells are rinsed with 2×5 ml of phosphate buffered saline (PBS) and the liquid aspirated off each time. […] The protein content is determined by the Lowry method and the receptor membranes are suspended in 50.0 mM Tris.HCl buffer containing 0.1 mM phenylmethylsulfonylfluoride (PMSF) and 0.2% bovine serum albumin (BSA) to give 2.5 mg receptor protein per ml of suspension.
For binding experiments, the following is added in ml volume to wells of a 96 well format of a microtiter plate: 100.0 ml of 100.0 mM Tris.HCl buffer containing 0.2% heat inactivated BSA, 10.0 mM MgCl2 and a mixture of protease inhibitors: leupeptin, 1.0 mg %; aprotinin, 1.0 mg %; 1,10-phenanthroline, 2.0 mg %; trypsin inhibitor, 10.0 mg % and 0.1 mM PMSF., 20.0 ml of [^3 H] […] Non specific binding is assessed in the presence of 1.0 mM of unlabeled ligand, added in 20 ml volume. […] The radioactivity trapped on the filter disk by the ligand-receptor complex is assessed by liquid scintillation counting in a Packard LS Counter, with an efficiency of 65% for tritium.

T1 sequence (P30518 whole entry): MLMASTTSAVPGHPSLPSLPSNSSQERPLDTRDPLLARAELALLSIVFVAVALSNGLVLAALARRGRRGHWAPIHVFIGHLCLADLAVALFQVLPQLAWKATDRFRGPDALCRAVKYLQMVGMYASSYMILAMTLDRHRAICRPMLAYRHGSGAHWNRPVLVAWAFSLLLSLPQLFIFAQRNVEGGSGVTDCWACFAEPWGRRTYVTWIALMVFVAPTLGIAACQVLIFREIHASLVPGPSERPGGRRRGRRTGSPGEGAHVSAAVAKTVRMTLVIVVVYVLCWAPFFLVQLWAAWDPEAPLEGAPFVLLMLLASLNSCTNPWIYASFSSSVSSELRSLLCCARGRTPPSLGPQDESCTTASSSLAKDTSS

SMILES | inhibition at 10 µM (** human V2, LV-2 membranes, 10 μM) | IC50 (** human V2 receptor, LV-2 membranes)
CCCCOc1ccc(C(=O)N2Cc3ccccc3Cc3ccccc32)cc1 [Example 24] | 26% | 
O=C(c1ccc(-c2ccccc2)cc1)N1Cc2sccc2Cc2ccccc21 [Example 27, 9-([1,1'-Biphenyl]-4-ylcarbonyl)-9,10-dihydro-4H-thieno[2,3-c][1]benzazepine] |  | 1800 nM
